Measurements: US20030078237A1, “Phenanthryl piperazinyl dicarboxylic acids as selective nmda receptor modulating agents” (priority 1999, published 2003)
Like-named read-outs stand apart in the source and are kept apart here.

How the values were obtained:
NR1/NR2B [1] = target: T1, NR1/NR2B (Rattus norvegicus, UniProt Q00960); settings: recombinant, Xenopus oocytes; from Buller and Monaghan 1997, mean +/- SEM, n=4-6; cited from earlier work
T1 construct: expressed in transfected cells; host or cells: Xenopus oocytes injected with in vitro transcribed RNA

NR1/NR2D [2] = target: T2, NR1/NR2D (Rattus norvegicus, UniProt Q62645); settings: recombinant, Xenopus oocytes; from Buller and Monaghan 1997, mean +/- SEM, n=4-6; cited from earlier work
T2 construct: expressed in transfected cells; host or cells: Xenopus oocytes injected with in vitro transcribed RNA

NR1/NR2A [3] = target: T3, NR1/NR2A (Rattus norvegicus, UniProt Q00959); settings: recombinant, Xenopus oocytes; from Buller and Monaghan 1997, mean +/- SEM, n=4-6; cited from earlier work
T3 construct: expressed in transfected cells; host or cells: Xenopus oocytes injected with in vitro transcribed RNA

NR1/NR2C [4] = target: T4, NR1/NR2C (Rattus norvegicus, UniProt Q00961); settings: recombinant, Xenopus oocytes; from Buller and Monaghan 1997, mean +/- SEM, n=4-6; cited from earlier work
T4 construct: expressed in transfected cells; host or cells: Xenopus oocytes injected with in vitro transcribed RNA

[5] = system: native non-NMDA glutamate receptors ([3H]kainate binding); assay: autoradiography, [3H]kainate binding; settings: PPDA 10 μM; 25 nM [3H]kainate; n=3
native AMPA receptors = assay: autoradiography, [3H]CNQX binding to native AMPA receptors; settings: PPDA 10 μM; 100 nM [3H]CNQX; n=3
[6] = target: Native NMDA receptor, Midline thalamus (NR2B/NR2D); assay: quantitative receptor autoradiography of [3H]-glutamate labeled native NMDA receptors, midline thalamus; format: binding; settings: [3H]-glutamate autoradiography, rat brain sections; read-out: Ki, native NMDA receptor potency, Midline thalamus (NR2B/NR2D)
Method: (§1) PPDA (50 μM) also had no effect on depolarizations following administration of (1S,3R)-1-amino-1,3-cyclopentane dicarboxylic acid (ACPD; 30 μM). APCD is a Group I metabotropic glutamate (mGlu) receptor agonist. The recited values were determined by using quantitative receptor autoradiography of [^3H]-glutamate labeled NMDA receptors in rat brain tissue sections.
(§2) The potency of PPDA for native NMDA receptors was also investigated in a Xenopus oocyte system.

[7] = target: T5, Native NMDA receptor, Cerebellum (NR2C) (Rattus norvegicus, UniProt Q00961); assay: quantitative receptor autoradiography of [3H]-glutamate labeled native NMDA receptors, cerebellum NR2C; format: binding
T5 construct: Native NMDA Receptor Potency; from tissue; host or cells: rat brain sections, cerebellum
Method: as §1, §2

NR1/NR2C [8] = target: T6, NR1/NR2C (Rattus norvegicus, UniProt P35439+Q00961); assay: two-microelectrode voltage clamp of recombinant NMDA receptors in Xenopus oocytes, NR1/NR2C; format: cell-based
T6 construct: expressed in transfected cells; host or cells: Xenopus oocytes injected with in vitro transcribed RNA
Method: (§3) RNA translation and transcription in Xenopus oocytes and electrophysiological recordings were performed as previously described (Monaghan D T, Larson H (1997) J Pharmacol Exp Ther 280:614 -620). Plasmids were linearized with NotI (NR1a), EcoRI (NR2A, NR2C, and NR2D), or SalI (NR2B) and transcribed in vitro using the mMessage mMachine RNA polymerase transcription kit (Ambion, Austin, Tex.). NR1 a was mixed 1:3 with NR2A, NR2B, NR2C, or NR2D RNA, and 2-50 ng of this mixture was injected into oocytes. Agonist-evoked responses were measured using a standard two-microelectrode voltage clamp (model OC-725B Oocyte Clamp; Warner Instruments, Hamden, Conn.) at a holding potential of −60 mV. Glutamate (10 μM) and glycine (10 μM) were applied until stable plateau responses were obtained; (±)-cis-1-(phenanthren-2-yl-carbonyl)-piperazine-2,3-dicarboxylic acid (PPDA) (0.1, 0.3, 1, 3, 10, or 30 μM) was then applied until steady-state blockade was obtained, followed by antagonist washout and full agonist responses. Current responses were captured and analyzed with AxoData (Axon Instruments, Foster City, Calif.) and GraphPad Prism (ISI Software, San Diego, Calif.) software. Ki values were corrected for agonist affinity according to the Cheng-Prusoff equation. Data in Table 3 are expressed as mean Kl±SEM. […]

[9] = target: T7, Native NMDA receptor, Cerebellum (NR2A) (Rattus norvegicus, UniProt Q00959); assay: quantitative receptor autoradiography of [3H]-glutamate labeled native NMDA receptors, cerebellum NR2A; format: binding
T7 construct: Native NMDA Receptor Potency; from tissue; host or cells: rat brain sections, cerebellum
Method: as §1, §2

NR1/NR2D [10] = target: T8, NR1/NR2D (Rattus norvegicus, UniProt P35439+Q62645); assay: two-microelectrode voltage clamp of recombinant NMDA receptors in Xenopus oocytes, NR1/NR2D; format: cell-based
T8 construct: expressed in transfected cells; host or cells: Xenopus oocytes injected with in vitro transcribed RNA
Method: as §3

[11] = system: AMPA subtype of glutamate receptors; assay: AMPA-induced depolarizations on neonatal rat motoneurones; format: cell-based; settings: PPDA 5 μM, AMPA 6 μM
Method: (§4) Hemisected neonatal rat spinal cords (Evans and Watkins, European Journal of Pharmacology, 50: 123-129, 1978) were isolated and wire electrodes were placed under the exposed ventral roots. The preparation was superfused with standard Ringers (containing in mM: NaCl 118, NaHCO3 25, KCl 3, CaCl2 2.5, D-glucose 12 and gassed with 95% O2/5% CO2). To record agonist-induced responses, 0.1 μM tetrodotoxin was included to block synaptic transmission and associated depolarizations. Agonist (N-methyl-D-aspartate (NMDA)) was superfused for 60-120 seconds at a rate of 1 ml/minute. The relative positive potentials recorded by the distal (to spinal cord) wire electrode compared to the proximal electrode was taken as an indication of motor neuron cell body depolarization. Antagonism of agonist-induced responses was observed by co-application of the antagonist PPDA.
(§5) AMPA and kainate are protypical agonists which show selectivity for, and predominantly activate, the AMPA and kainate subtypes of glutamate receptors. In additional assays, PPDA was tested at a concentration of 5 μM (which is approximately 20 times the Kd value for the antagonism of NMDA receptors) as an antagonist of AMPA (6 μM)-, kainate (50 μM)- and NMDA (50 μM)-induced depolarizations (approximate EC50 concentrations used) on neonatal rat motoneurones.

NMDA receptors = assay: NMDA-induced depolarizations of motoneurones, hemisected neonatal rat spinal cord; format: cell-based
Method: as §4, §5

[12] = target: T9, Native NMDA receptor, Medial Striatum (NR2B) (Rattus norvegicus, UniProt Q00960); assay: quantitative receptor autoradiography of [3H]-glutamate labeled native NMDA receptors, medial striatum; format: binding
T9 construct: Native NMDA Receptor Potency; from tissue; host or cells: rat brain sections, medial striatum
Method: as §1, §2

[13] = system: kainate subtype of glutamate receptors; assay: kainate-induced depolarizations on neonatal rat motoneurones; format: cell-based; settings: PPDA 5 μM, kainate 50 μM
Method: as §4, §5

NR1/NR2B [14] = target: T10, NR1/NR2B (Rattus norvegicus, UniProt P35439+Q00960); assay: two-microelectrode voltage clamp of recombinant NMDA receptors in Xenopus oocytes, NR1/NR2B; format: cell-based
T10 construct: expressed in transfected cells; host or cells: Xenopus oocytes injected with in vitro transcribed RNA
Method: as §3

[15] = system: Group I metabotropic glutamate (mGlu) receptor; assay: ACPD-induced depolarizations on neonatal rat motoneurones; format: cell-based; settings: PPDA 50 μM; ACPD 30 μM
Method: as §4, §1

NR1/NR2A [16] = target: T11, NR1/NR2A (Rattus norvegicus, UniProt P35439+Q00959); assay: two-microelectrode voltage clamp of recombinant NMDA receptors in Xenopus oocytes, NR1/NR2A; format: cell-based; settings: NR1a co-expressed in Xenopus oocytes, mean +/- SEM
T11 construct: expressed in transfected cells; host or cells: Xenopus oocytes injected with in vitro transcribed RNA
Method: as §3

T8 sequence (Q62645 28-1323, other chains not shown): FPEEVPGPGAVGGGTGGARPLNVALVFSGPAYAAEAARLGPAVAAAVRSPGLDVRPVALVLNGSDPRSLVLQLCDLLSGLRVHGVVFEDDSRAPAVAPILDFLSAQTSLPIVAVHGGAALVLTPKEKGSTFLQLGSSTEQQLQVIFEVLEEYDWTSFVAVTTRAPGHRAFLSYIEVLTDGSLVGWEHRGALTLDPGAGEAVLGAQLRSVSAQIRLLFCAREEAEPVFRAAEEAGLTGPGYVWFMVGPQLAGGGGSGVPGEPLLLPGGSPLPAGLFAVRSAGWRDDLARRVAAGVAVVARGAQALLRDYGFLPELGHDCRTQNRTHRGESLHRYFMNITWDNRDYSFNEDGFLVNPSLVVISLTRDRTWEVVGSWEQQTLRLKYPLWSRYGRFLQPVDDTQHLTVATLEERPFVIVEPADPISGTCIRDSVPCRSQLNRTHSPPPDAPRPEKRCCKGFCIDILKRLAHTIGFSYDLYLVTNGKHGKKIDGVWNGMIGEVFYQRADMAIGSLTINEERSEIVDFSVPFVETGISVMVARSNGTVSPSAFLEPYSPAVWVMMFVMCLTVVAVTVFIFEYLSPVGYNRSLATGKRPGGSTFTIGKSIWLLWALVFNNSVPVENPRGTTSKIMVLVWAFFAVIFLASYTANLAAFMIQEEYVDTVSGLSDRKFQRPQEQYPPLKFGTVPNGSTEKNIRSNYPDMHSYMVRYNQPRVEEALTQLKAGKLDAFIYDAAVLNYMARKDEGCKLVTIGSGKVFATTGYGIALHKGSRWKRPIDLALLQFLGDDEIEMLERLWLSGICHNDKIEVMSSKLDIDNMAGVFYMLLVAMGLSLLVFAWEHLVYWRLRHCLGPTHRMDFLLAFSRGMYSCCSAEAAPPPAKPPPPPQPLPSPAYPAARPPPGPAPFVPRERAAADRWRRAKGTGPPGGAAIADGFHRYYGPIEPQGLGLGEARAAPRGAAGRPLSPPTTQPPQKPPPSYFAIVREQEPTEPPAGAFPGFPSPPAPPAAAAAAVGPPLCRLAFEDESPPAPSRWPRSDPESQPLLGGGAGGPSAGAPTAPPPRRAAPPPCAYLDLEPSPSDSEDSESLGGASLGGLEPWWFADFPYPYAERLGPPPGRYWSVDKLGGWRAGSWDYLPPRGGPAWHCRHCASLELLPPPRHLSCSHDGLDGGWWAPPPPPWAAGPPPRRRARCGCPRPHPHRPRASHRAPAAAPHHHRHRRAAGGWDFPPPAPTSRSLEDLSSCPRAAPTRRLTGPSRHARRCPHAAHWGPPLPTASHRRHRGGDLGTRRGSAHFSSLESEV
T2 sequence (Q62645 28-1323, other chains not shown): as above
T10 sequence (Q00960 27-1482, other chains not shown): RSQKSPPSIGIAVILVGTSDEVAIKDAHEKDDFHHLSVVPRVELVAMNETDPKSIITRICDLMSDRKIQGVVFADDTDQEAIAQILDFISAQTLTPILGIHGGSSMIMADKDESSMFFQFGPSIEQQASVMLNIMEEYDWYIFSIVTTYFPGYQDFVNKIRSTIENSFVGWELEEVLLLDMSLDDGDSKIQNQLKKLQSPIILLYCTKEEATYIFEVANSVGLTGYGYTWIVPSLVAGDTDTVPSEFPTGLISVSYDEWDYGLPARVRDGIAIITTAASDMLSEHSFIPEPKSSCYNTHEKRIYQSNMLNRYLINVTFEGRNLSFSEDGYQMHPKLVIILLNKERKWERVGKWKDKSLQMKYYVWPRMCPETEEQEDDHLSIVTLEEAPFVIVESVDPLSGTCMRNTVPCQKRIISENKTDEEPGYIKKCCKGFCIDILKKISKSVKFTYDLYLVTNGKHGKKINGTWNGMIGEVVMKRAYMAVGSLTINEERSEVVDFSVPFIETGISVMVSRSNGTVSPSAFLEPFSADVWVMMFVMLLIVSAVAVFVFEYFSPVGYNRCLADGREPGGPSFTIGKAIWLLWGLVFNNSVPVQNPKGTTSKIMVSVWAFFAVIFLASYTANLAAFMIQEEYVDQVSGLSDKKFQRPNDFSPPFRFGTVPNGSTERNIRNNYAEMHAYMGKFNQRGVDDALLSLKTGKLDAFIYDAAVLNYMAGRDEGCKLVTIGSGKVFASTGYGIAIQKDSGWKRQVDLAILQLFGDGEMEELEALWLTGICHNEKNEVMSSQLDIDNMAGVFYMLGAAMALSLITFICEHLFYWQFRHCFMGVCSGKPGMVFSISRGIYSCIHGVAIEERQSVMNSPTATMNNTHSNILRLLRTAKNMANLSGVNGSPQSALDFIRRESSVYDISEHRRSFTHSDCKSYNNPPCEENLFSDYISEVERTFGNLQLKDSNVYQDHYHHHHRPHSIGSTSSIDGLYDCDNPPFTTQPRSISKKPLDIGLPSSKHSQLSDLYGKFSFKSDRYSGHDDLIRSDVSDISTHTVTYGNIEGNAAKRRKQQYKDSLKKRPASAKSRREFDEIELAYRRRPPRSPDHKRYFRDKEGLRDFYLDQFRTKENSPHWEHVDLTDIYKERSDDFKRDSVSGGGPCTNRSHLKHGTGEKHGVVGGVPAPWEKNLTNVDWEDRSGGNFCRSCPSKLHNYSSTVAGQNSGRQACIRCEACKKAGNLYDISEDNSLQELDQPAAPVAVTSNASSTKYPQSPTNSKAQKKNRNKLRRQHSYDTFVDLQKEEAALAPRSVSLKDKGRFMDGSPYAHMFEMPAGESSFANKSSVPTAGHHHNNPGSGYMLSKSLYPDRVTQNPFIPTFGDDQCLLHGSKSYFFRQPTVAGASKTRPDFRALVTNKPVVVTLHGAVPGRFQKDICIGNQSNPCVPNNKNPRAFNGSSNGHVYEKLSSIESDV
T1 sequence (Q00960 27-1482, other chains not shown): as above

N[C@H](CCCP(=O)(O)O)C(=O)O [D-AP5]
Ki (NR1/NR2B [1]): 460 nM | Ki (NR1/NR2D [2]): 3710 nM | Ki (NR1/NR2A [3]): 280 nM | Ki (NR1/NR2C [4]): 1640 nM

O=C(O)[C@H]1NCCN(C(=O)c2ccc3c(ccc4ccccc43)c2)[C@H]1C(=O)O (racemic) [PPDA, (±)-cis-1-(Phenanthrene-2-ylcarbonyl)Piperazine-2,3-Dicarboxylic Acid]
inhibition of [3H]kainate binding [5]: 9.3±6.7% | inhibition of [3H]CNQX binding to native AMPA receptors (native AMPA receptors): 44.6±1.3% | Ki [6]: 310 nM | Ki [7]: 390 nM | Ki (NR1/NR2C [8]): 70 nM | Ki [9]: 7200 nM | Ki (NR1/NR2D [10]): 110 nM | antagonism of AMPA-induced depolarizations [11]: 15% | antagonism of NMDA-induced depolarizations (NMDA receptors; PPDA 5 μM, NMDA 50 μM, neonatal rat motoneurones): 88% | Kd (NMDA receptors; neonatal rat spinal cord, competitive antagonist, read-out: affinity (Kd), Schild analysis of NMDA-induced depolarizations): 247 nM | potency as antagonist of NMDA-induced depolarizations relative to CPP-ene (NMDA receptors; spinal cord): as potent as CPP-ene | Ki [12]: 540 nM | antagonism of kainate-induced depolarizations [13]: 21% | Ki (NR1/NR2B [14]): 350 nM | effect on ACPD-induced depolarizations [15]: no effect

O=C(O)C1CN(CC=CP(=O)(O)O)CCN1 (stereo not drawn) [CPP-ene, 4-(3-phosphonoprop-2-enyl)piperazine-2-carboxylic acid]
Ki (NR1/NR2B [1]): 140 nM | Ki (NR1/NR2D [2]): 1840 nM | Ki (NR1/NR2A [3]): 110 nM | Ki (NR1/NR2C [4]): 1460 nM

O=C(O)C1NCCN(C(=O)c2ccc(-c3ccccc3)cc2)C1C(=O)O (stereo not drawn) [PBPD, 1-(4-phenylbenzoyl)-piperazine-2,3-dicarboxylic acid, reference compound]
Ki (NR1/NR2A [16]): 15800 nM | Ki (NR1/NR2C [8]; recombinant, NR1a co-expressed in Xenopus oocytes, mean +/- SEM, read-out: NR1/NR2C Ki): 8980 nM | Ki (NR1/NR2D [10]; recombinant, NR1a co-expressed in Xenopus oocytes, mean +/- SEM, read-out: NR1/NR2D Ki): 4290 nM | Ki (NR1/NR2B [14]; recombinant, NR1a co-expressed in Xenopus oocytes, mean +/- SEM, read-out: NR1/NR2B Ki): 5010 nM
